Measurements taken from patent publication US7056679B2, “Target specific screening and its use for identifying target binders” (Antyra, Inc., priority 2001, dated 2006).
No end group written: not given here.

How the values were obtained:
E-tag antibody = experiment: ELISA analysis of phage on antibody raised against ETAG (positive control); conditions: peptide binding to E-tag antibody; phage ELISA units read at 405 nm
Experimental: (§1) For analysis of individual target binders, colonies were picked and phage prepared as described above using helper phage, M13KO7. Ninety-six-well microtiter plates were coated with 500 ng/well of specific target protein, 500 ng/well lactate dehydrogenase (LDH) irrelevant or non-specific target, 500 ng/well of positive control antibody raised against ETAG, and negative control of non-fat milk powder-PBS 2% at 4° C. overnight. Plates were then blocked with 350 microliters/well PBS containing 2% non-fat milk for 1 hr at room temperature. One hundred microliters per well of phage from isolated clones were added and plates were incubated at room temperature for 2 hr after centrifuging samples for 20 minutes at 3500 rpm at 4° C. The phage solution was then removed, and the wells were washed three times with PBS at room temperature. Antibody raised against M13 conjugated to horseradish peroxidase (Pharmacia) was diluted 1:3000 in PBS-Tween and added to each well (100 μl/well). Incubation was for 1 hr at room temperature, followed by washing with PBS-(0.5%) Tween 3 times as described. Color was developed by addition of ABTS solution (100 μl/well; Boehringer, Indianapolis, Ind.). Plates were analyzed at 405 nm. A clone was considered “positive” if the A405 of the well was ≧2-fold over background.

DGI-2 = target: T1, DGI-2 (Homo sapiens, UniProt Q15004); experiment: ELISA analysis of phage on DGI-2 polypeptide (specific binding); conditions: for DGI-2 (OD): binding to DGI-2 polypeptide (specific binding), phage ELISA units read at 405 nm; for DGI-2/LDH (OD): ratio of specific binding to non-specific binding
T1 construct: encompassed the entire DGI-2 open reading frame (ORF); His-tag of vector pIVEX2.3-MCS (inferred from the vector and from the reverse primer lacking a stop codon); made in house; host or cells: cell-free in vitro translation (Rapid Translation System RTS, Roche; E. coli lysate)
T1 sequence (Q15004 1-111): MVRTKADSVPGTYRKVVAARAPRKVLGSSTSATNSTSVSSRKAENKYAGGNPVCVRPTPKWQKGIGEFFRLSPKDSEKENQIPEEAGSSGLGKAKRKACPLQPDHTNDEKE
Experimental: To verify that the selected target binders bound to DGI-2, Elisa assays were performed with recombinant DGI-2. DGI-2 was subcloned and expressed using conventional methods as described below.
Protein yields were satisfactory, but most of protein was found in inclusion bodies. Next, DGI-2 was expressed using an in vitro translation system (Rapid Translation System RTS 5000, Roche Diagnostics GmbH, Mannheim Germany). For this system, the DGI-2 ORF was cloned into the pIVEX2.3-MCS vector (Roche Diagnostics) using restriction sites Nde I and Hind III, which were added to DGI-2 by PCR. […] The primers used for the PCR amplification were as follows: […]
as §1

[1] = tested on: lactate dehydrogenase (LDH); experiment: ELISA analysis of phage on LDH (irrelevant, non-specific target); assay type: binding; conditions: peptide binding to LDH polypeptide (non-specific binding); phage ELISA units read at 405 nm
Experimental: as §1

Row | Substance | DGI-2 (OD) (DGI-2) | DGI-2/LDH (OD) (DGI-2) | LDH (OD) [1] [OD] | ETAG (OD) (E-tag antibody)
1 | YGTAGLFLRRACTMSDPGDPLGRRGYTGWGVLWDEWVTGS (DGI-2-40F-3-C8; listed as Escherichia coli) | 5.7 | 6.0 | 0.9 | 13.6
2 | FSSTGILLRSGRATAVGHVT (DGI-2-20F-3-A6; listed as Escherichia coli) | 1.5 | 1.4 | 1.1 | 13.2
3 | GEVDCVYALTHRFLSPQVQYHIHRPV (GEVDCVYALTHRFLSPQVQYHHRPV; DGI-2-20C-3-A12; listed as Escherichia coli) | 0.9 | 1.0 | 0.9 | 8.1
4 | VLQRSLWKDWVDGVMHGGGSRGV (DGI-2-20R-3-A7; listed as Escherichia coli) | 4.8 | 5.1 | 0.9 | 13.9
5 | RWSICRGLQYSIPGCAVEDLSDVMA (DGI-2-20C-4-H316; listed as Escherichia coli) | 3.8 | 3.9 | 1.0 | 7.2
6 | LFRFSGTGMASLPCVGWHLV (DGI-2-20F-PP-B6; listed as Escherichia coli) | 2.5 | 2.6 | 1.0 | 37.0
7 | ERVSKCVGRGSGRSVGQFGG (DGI-2-20F-PP-F1; listed as Escherichia coli) | 3.0 | 3.4 | 0.9 | 11.1
8 | V#CR#LCRLCRFSMRCGGLSLVLGSAAAFFCEVFVGFCV (VCRLCRLCRFSMRCGGLSLVLGSAAAFFCEVFVGFCV; not fully specified (residues 1, 3); cysteine pairing not given here; also: TAA stop codons (#) after V1 and after R3; listed as Escherichia coli) [DGI-2-40F-4-E1130] | 2.9 | 3.2 | 0.9 | 8.3
9 | MFQDVACDLWHSVRCLRRDV (DGI-2-20R-3-B3; listed as Escherichia coli) | 4.9 | 4.8 | 1.0 | 16.1
10 | MAVLPAARDFGGVVQGGVSG (DGI-2-20F-3-C2; listed as Escherichia coli) | 1.3 | 1.3 | 1.0 | 11.5
11 | RTLFINGGCCGKGSGGGRPL (DGI-2-20F-PP-G1; listed as Escherichia coli) | 1.4 | 1.4 | 1.0 | 21.8
12 | DRSRAPLCADKSGRWQRYRR (DGI-2-20F-PP-C10; listed as Escherichia coli) | 2.7 | 3.1 | 0.9 | 8.6
13 | TCWIHRGLNVVRYSVNFGVRDARLTTQGMAWFPPGCGQGCV (TCWHRGLNVVRYSVNFGVRDARLTTQGMAWFPPGCGQGCV; DGI-2-40F-4-E62; listed as Escherichia coli) | 4.6 | 4.5 | 1.0 | 14.8
14 | SWACGLLWPGECGSQVARRG (DGI-2-20R-3-D127; listed as Escherichia coli) | 6.7 | 6.4 | 1.0 | 15.4
15 | GWSDFVATGSWSGQVSAALN (DGI-2-20R-4-F120; listed as Escherichia coli) | 13.6 | 12.2 | 1.1 | 16.5
16 | LWRRWSEGQLLGDGELRGDG (DGI-2-20R-3-B52; listed as Escherichia coli) | 8.7 | 8.4 | 1.0 | 15.8

More lines, main results first:

Row | DGI-2 (OD) (DGI-2) | DGI-2/LDH (OD) (DGI-2) | LDH (OD) [1] [OD] | Substance | ETAG (OD) (E-tag antibody)
17 | 6.7 | 6.4 | 1.0 | WGCVFRQWASGSGAGCARRH (DGI-2-20R-3-D9; listed as Escherichia coli) | 19.7
18 | 1.4 | 1.2 | 1.1 | LSVFRPGQFPHVGARGVSRT (DGI-2-20R-4-G32; listed as Escherichia coli) | 11.0
19 | 7.9 | 7.5 | 1.1 | FRMWVQSCFWGQPGTGCGEG (DGI-2-20R-3-D2; listed as Escherichia coli) | 14.3
20 | 1.9 | 2.7 | 0.7 | LGPAHPHGRVCRVSSS#S (LGPAHPHGRVCRVSSSS; DGI-2-20F-PP-B9; listed as Escherichia coli) | 5.0
21 | 3.1 | 2.8 | 1.1 | MGSLGPFGNTNSLASGIGSVRNRPLLPLHGSP [DGI-2-40F-3-D72] | 14.0
22 | 5.6 | 5.9 | 1.0 | LPQSRWLSEAWASWVDGVVD (DGI-2-20F-4-F9; listed as Escherichia coli) | 19.6
23 | 1.1 | 1.1 | 0.9 | FSSVLGLLDRRGVPVVVGED (DGI-2-20F-3-C3; listed as Escherichia coli) | 11.6
24 | 7.5 | 7.2 | 1.0 | DQRVVGSGWFERLRNWYDRA (DGI-2-20R-4-G99; listed as Escherichia coli) | 14.1
25 | 2.3 | 2.5 | 0.9 | GGSLPVKSGQLVTCCTSKGG (DGI-2-20F-PP-F5; listed as Escherichia coli) | 16.3
26 | 2.7 | 2.5 | 1.1 | GLYQRGLAPRCRGERFGVRN (DGI-2-20F-PP-C2; listed as Escherichia coli) | 6.0
27 | 2.7 | 2.7 | 1.0 | SIVSSRSGWQRGWIAWEAPV (SIVSSRSGWQRGWIAWFAPV; DGI-2-20F-PP-E5; listed as Escherichia coli) | 30.4
28 | 3.3 | 3.1 | 1.0 | VCSGGKGTWLEIPDRVRSST (DGI-2-20F-PP-A22; listed as Escherichia coli) | 44.1
29 | 6.2 | 5.7 | 1.1 | WAASCFWGHVALGCGRNGQG (DGI-2-20R-3-A11; listed as Escherichia coli) | 14.7
30 | 6.2 | 5.8 | 1.1 | RDTTSQWSWISRGWEFPGWR (DGI-2-20R-3-C2; listed as Escherichia coli) | 11.9
